Assays:
Type in all cases: functional
[1] = Cytotoxicity against human NCI60 cells assessed as cell growth at 10 uM after 48 hrs by sulforhodamine B assay; conditions: NCI60, 48 h, read-out: Activity
[2] = system: CCRF-CEM; experiment: Cytotoxicity against human CCRF-CEM cells after 48 hrs by sulforhodamine B assay
[3] = Cytotoxicity against human NCI60 cells after 48 hrs by sulforhodamine B assay; conditions: NCI60, 48 h; for TGI: read-out: pTGI (converted)
[4] = system: SR; experiment: Cytotoxicity against human SR cells after 48 hrs by sulforhodamine B assay
[5] = system: OVCAR-3; experiment: Cytotoxicity against human OVCAR-3 cells after 48 hrs by sulforhodamine B assay; conditions: OVCAR-3, 48 h; for CC50: read-out: pLC50 (the source's name) (converted); for TGI: read-out: pTGI (converted)
[6] = system: A498; experiment: Cytotoxicity against human A498 cells after 48 hrs by sulforhodamine B assay; conditions: A498, 48 h; for CC50: read-out: pLC50 (the source's name) (converted); for TGI: read-out: pTGI (converted)
[7] = system: HOP-92; experiment: Cytotoxicity against human HOP92 cells after 48 hrs by sulforhodamine B assay; conditions: HOP-92, 48 h; for TGI: read-out: pTGI (converted)
[8] = system: RXF 393; experiment: Cytotoxicity against human RXF393 cells after 48 hrs by sulforhodamine B assay; conditions: RXF 393, 48 h
[9] = system: CAKI-1; experiment: Cytotoxicity against human Caki1 cells after 48 hrs by sulforhodamine B assay; conditions: CAKI-1, 48 h
[10] = system: T47D; experiment: Cytotoxicity against human T47D cells after 48 hrs by sulforhodamine B assay
[11] = system: HOP-62; experiment: Cytotoxicity against human HOP62 cells after 48 hrs by sulforhodamine B assay; conditions: HOP-62, 48 h
[12] = system: HCT-116; experiment: Cytotoxicity against human HCT116 cells after 48 hrs by sulforhodamine B assay; conditions: HCT-116, 48 h
[13] = system: 786-0; experiment: Cytotoxicity against human 786-0 cells after 48 hrs by sulforhodamine B assay; conditions: 786-0, 48 h
[14] = read-out: pLC50 (the source's name) (converted)

O=C(N/N=C/c1cccnc1)c1ccc(C(F)(F)F)nc1Nc1cccc(C(F)(F)F)c1
growth at 10 µM [1]: 70.3%

COc1ccc(Cl)cc1Nc1nc(C(F)(F)F)ccc1C(=O)N/N=C/c1ccncc1
growth at 10 µM [1]: 62.5%

Cc1cc(Cl)ccc1Nc1nc(C(F)(F)F)ccc1C(=O)N/N=C/c1ccc([N+](=O)[O-])cc1
GI50 [2]: 0.0427 µM | TGI ([2]; read-out: pTGI (converted)): 0.0776 µM | TGI [3]: 4.68 µM | growth at 10 µM [1]: -7.22%

Cc1cc(Cl)ccc1Nc1nc(C(F)(F)F)ccc1C(=O)N/N=C/c1ccc(Cl)cc1Cl
growth at 10 µM [1]: 60.1%

Cc1ccc(Cl)cc1Nc1nc(C(F)(F)F)ccc1C(=O)N/N=C/c1ccc([N+](=O)[O-])cc1
growth at 10 µM [1]: 85.7%

Cc1ccc(Cl)cc1Nc1nc(C(F)(F)F)ccc1C(=O)N/N=C/c1ccc(N(C)C)cc1
growth at 10 µM [1]: 52.1%

O=C(N/N=C/c1ccc([N+](=O)[O-])cc1)c1ccc(C(F)(F)F)nc1Nc1cccc(C(F)(F)F)c1
growth at 10 µM [1]: 95.2%

Cc1cc(Cl)ccc1Nc1nc(C(F)(F)F)ccc1C(=O)N/N=C/c1ccc(F)cc1
TGI [3]: 7.08 µM | growth at 10 µM [1]: 6.66%

Cc1ccc(Cl)cc1Nc1nc(C(F)(F)F)ccc1C(=O)N/N=C/c1ccccc1Cl
growth at 10 µM [1]: 36.2%

COc1cc(/C=N/NC(=O)c2ccc(C(F)(F)F)nc2Nc2ccc(Cl)cc2C)ccc1O
TGI [3]: 10.5 µM | growth at 10 µM [1]: 26.8%

COc1cc(/C=N/NC(=O)c2ccc(C(F)(F)F)nc2Nc2ccc(Cl)cc2C)cc(OC)c1OC
growth at 10 µM [1]: 32.3%

Cc1ccc(Cl)cc1Nc1nc(C(F)(F)F)ccc1C(=O)N/N=C/c1cccc(O)c1
growth at 10 µM [1]: 90.1%

O=C(N/N=C/c1c(Cl)cccc1Cl)c1ccccc1Nc1cccc(C(F)(F)F)c1
growth at 10 µM [1]: 90.6%

Nc1nc(C(F)(F)F)ccc1C(=O)N/N=C/c1c(Cl)cccc1Cl
growth at 10 µM [1]: 102%

O=C(N/N=C/c1ccc(F)cc1)c1ccc(C(F)(F)F)nc1Nc1cccc(C(F)(F)F)c1
TGI [3]: 4.47 µM | growth at 10 µM [1]: 7.73%

Cc1cc(Cl)ccc1Nc1nc(C(F)(F)F)ccc1C(=O)NCC(=O)N/N=C/c1c(Cl)cccc1Cl
growth at 10 µM [1]: 68.1%

CN(C)c1ccc(/C=N/NC(=O)c2ccc(C(F)(F)F)nc2Nc2cccc(C(F)(F)F)c2)cc1
growth at 10 µM [1]: 60.2%

COc1ccc(Cl)cc1Nc1nc(C(F)(F)F)ccc1C(=O)N/N=C/c1ccc(F)cc1
growth at 10 µM [1]: 36.5%

Cc1ccc(Cl)cc1Nc1nc(C(F)(F)F)ccc1C(=O)N/N=C/c1ccncc1
growth at 10 µM [1]: 67.9%

Cc1cc(Cl)ccc1Nc1nc(C(F)(F)F)ccc1C(=O)N/N=C/c1ccc(Cl)cc1
TGI [3]: 7.59 µM | growth at 10 µM [1]: -7.31%

Cc1cc(Cl)ccc1Nc1nc(C(F)(F)F)ccc1C(=O)N/N=C/c1ccncc1
growth at 10 µM [1]: 54.2%

COc1cc(/C=N/NC(=O)c2ccc(C(F)(F)F)nc2Nc2cccc(C(F)(F)F)c2)ccc1O
growth at 10 µM [1]: 50.1%

O=C(N/N=C/c1ccccc1Cl)c1ccc(C(F)(F)F)nc1Nc1cccc(C(F)(F)F)c1
growth at 10 µM [1]: 34.2%

Cc1ccc(Cl)cc1Nc1nc(C(F)(F)F)ccc1C(=O)N/N=C/c1cccnc1
GI50 [4]: 0.0977 µM | TGI [3]: 12.6 µM | growth at 10 µM [1]: 20.9%

Cc1ccc(Cl)cc1Nc1nc(C(F)(F)F)ccc1C(=O)N/N=C/c1ccc(Cl)cc1
GI50 [3]: 1.48 µM | TGI [3]: 5.25 µM | growth at 10 µM [1]: 0.47%

O=C(N/N=C/c1c(Cl)cccc1Cl)c1ccc(C(F)(F)F)nc1Nc1cccc(C(F)(F)F)c1
GI50 [5]: 0.191 µM | CC50 [5]: 77.6 µM | TGI [5]: 0.646 µM | GI50 [6]: 0.191 µM | CC50 [6]: 9.33 µM | TGI [6]: 0.646 µM | TGI [3]: 10.2 µM | GI50 [7]: 0.0447 µM | TGI [7]: 0.417 µM | growth at 10 µM [1]: 5.01%

Cc1ccc(Cl)cc1Nc1nc(C(F)(F)F)ccc1C(=O)N/N=C/c1ccc(Cl)cc1Cl
growth at 10 µM [1]: 62.6%

COc1ccc(Cl)cc1Nc1nc(C(F)(F)F)ccc1C(=O)N/N=C/c1ccc(N(C)C)cc1
growth at 10 µM [1]: 95.6%

O=C(N/N=C/c1ccc(Cl)cc1)c1ccc(C(F)(F)F)nc1Nc1cccc(C(F)(F)F)c1
TGI [3]: 6.61 µM | GI50 [7]: 0.0437 µM | CC50 [7, 14]: 20.9 µM | TGI [7]: 0.589 µM | growth at 10 µM [1]: 9.64%

COc1ccc(Cl)cc1Nc1nc(C(F)(F)F)ccc1C(=O)N/N=C/c1ccc([N+](=O)[O-])cc1
TGI [3]: 8.71 µM | growth at 10 µM [1]: 0.92%

COc1ccc(Cl)cc1Nc1nc(C(F)(F)F)ccc1C(=O)N/N=C/c1cccnc1
GI50 [3]: 2.95 µM | TGI [3]: 79.4 µM | growth at 10 µM [1]: 44.7%

COc1ccc(Cl)cc1Nc1nc(C(F)(F)F)ccc1C(=O)N/N=C/c1cc(OC)c(OC)c(OC)c1
TGI [3]: 10.5 µM | growth at 10 µM [1]: 17.6%

COc1ccc(Cl)cc1Nc1nc(C(F)(F)F)ccc1C(=O)N/N=C/c1cccc(O)c1
growth at 10 µM [1]: 59.1%

COc1ccc(Cl)cc1Nc1nc(C(F)(F)F)ccc1C(=O)N/N=C/c1ccc(Cl)cc1Cl
growth at 10 µM [1]: 72.1%

Cc1cc(Cl)ccc1Nc1nc(C(F)(F)F)ccc1C(=O)N/N=C/c1cccc(O)c1
GI50 [8]: 0.195 µM | TGI ([8]; read-out: pTGI (converted)): 11.2 µM | GI50 [9]: 0.017 µM | CC50 [9, 14]: 24 µM | TGI ([9]; read-out: pTGI (converted)): 3.31 µM | TGI [3]: 11 µM | growth at 10 µM [1]: 27.1% | GI50 [10]: 0.0355 µM | CC50 [10, 14]: 21.4 µM | TGI ([10]; read-out: pTGI (converted)): 2.14 µM

Cc1cc(Cl)ccc1Nc1nc(C(F)(F)F)ccc1C(=O)N/N=C/c1ccccc1Cl
GI50 [5]: 0.191 µM | CC50 [5]: 8.32 µM | TGI [5]: 0.513 µM | GI50 [6]: < 0.01 µM | CC50 [6]: 17.8 µM | TGI [6]: 2.69 µM | TGI [3]: 5.13 µM | growth at 10 µM [1]: 14.8%

Cc1ccc(Cl)cc1Nc1nc(C(F)(F)F)ccc1C(=O)N/N=C/c1ccc(F)cc1
growth at 10 µM [1]: 33%

O=C(N/N=C/c1cccc(O)c1)c1ccc(C(F)(F)F)nc1Nc1cccc(C(F)(F)F)c1
growth at 10 µM [1]: 103%

Cc1ccc(Cl)cc1Nc1nc(C(F)(F)F)ccc1C(=O)N/N=C/c1c(Cl)cccc1Cl
GI50 [11]: 0.251 µM | CC50 [11, 14]: 5.75 µM | TGI ([11]; read-out: pTGI (converted)): 0.776 µM | GI50 [12]: 0.214 µM | CC50 [12, 14]: 3.31 µM | TGI ([12]; read-out: pTGI (converted)): 0.49 µM | GI50 [4]: 0.0562 µM | CC50 [4, 14]: 41.7 µM | TGI ([4]; read-out: pTGI (converted)): 2.69 µM | TGI [3]: 6.17 µM | GI50 [13]: 0.251 µM | CC50 [13, 14]: 3.02 µM | TGI ([13]; read-out: pTGI (converted)): 0.603 µM | growth at 10 µM [1]: -3.82%

COc1cc(/C=N/NC(=O)c2ccc(C(F)(F)F)nc2Nc2cccc(C(F)(F)F)c2)cc(OC)c1OC
growth at 10 µM [1]: 44.5%

COc1cc(/C=N/NC(=O)c2ccc(C(F)(F)F)nc2Nc2cc(Cl)ccc2OC)ccc1O
growth at 10 µM [1]: 42.1%

Cc1cc(Cl)ccc1Nc1nc(C(F)(F)F)ccc1C(=O)N/N=C/c1cccnc1
growth at 10 µM [1]: 47.2%

O=C(N/N=C/c1ccc(Cl)cc1Cl)c1ccc(C(F)(F)F)nc1Nc1cccc(C(F)(F)F)c1
growth at 10 µM [1]: 66.3%

Cc1cc(Cl)ccc1Nc1nc(C(F)(F)F)ccc1C(=O)N/N=C/c1ccc(N(C)C)cc1
GI50 [3]: 1.7 µM | TGI [3]: 66.1 µM | growth at 10 µM [1]: 23.2%

COc1cc(/C=N/NC(=O)c2ccc(C(F)(F)F)nc2Nc2cc(Cl)ccc2C)ccc1O
growth at 10 µM [1]: 47.2%

O=C(N/N=C/c1ccncc1)c1ccc(C(F)(F)F)nc1Nc1cccc(C(F)(F)F)c1
TGI [3]: 8.71 µM | growth at 10 µM [1]: 10.8%

COc1cc(/C=N/NC(=O)c2ccc(C(F)(F)F)nc2Nc2cc(Cl)ccc2C)cc(OC)c1OC
growth at 10 µM [1]: 94%

O=C(N/N=C/c1c(Cl)cccc1Cl)c1cccnc1Nc1cccc(C(F)(F)F)c1
TGI [3]: 39.8 µM | growth at 10 µM [1]: 37.8%

O=C(O)CCCc1ccc(N(CCCl)CCCl)cc1 [CHLORAMBUCIL]
TGI [3]: 35.5 µM
